Test results published in PMC8041284, “Tunable Methacrylamides for Covalent Ligand Directed Release Chemistry” (Journal of the American Chemical Society, 2021).

Target: BTK (Homo sapiens, UniProt Q06187)
Assay: biochemical
Details: read-out: BTK inhibition (%), 0.75 uM BTK, […] probe 3l, 15 min preincubation

BTK, sequence (Q06187 402-655 limits assumed): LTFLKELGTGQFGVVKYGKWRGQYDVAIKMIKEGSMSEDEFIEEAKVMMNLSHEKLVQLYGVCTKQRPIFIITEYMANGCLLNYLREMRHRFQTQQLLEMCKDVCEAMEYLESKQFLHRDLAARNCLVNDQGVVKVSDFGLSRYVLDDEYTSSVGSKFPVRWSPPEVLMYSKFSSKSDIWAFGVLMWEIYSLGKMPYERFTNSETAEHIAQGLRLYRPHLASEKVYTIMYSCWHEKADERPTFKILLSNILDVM

inhibition at 10 µM [%]	Molecule
6.2	Cc1cc(NC(=O)Nc2ccc(N(C)C)cc2)c2cc(F)cc(F)c2n1 [PCM-0095106]
-3.1	O=C(Oc1cc(S(=O)(=O)c2ccccc2)ccc1[N+](=O)[O-])c1ccc(Cl)cc1 [PCM-0004196]
1.7	NCCCC[C@H](N[C@@H](CCc1ccccc1)C(=O)O)C(=O)N1CCC[C@H]1C(=O)O [PCM-0085899]
11.7	NC(=O)Cc1cccc(C(=O)c2ccccc2)c1N [PCM-0095009]
7.7	O=C(CCCCCN1C(=O)c2cccc3cccc(c23)C1=O)NO [PCM-0095631]
3.1	NC(=O)Cc1c[nH]c2ccccc12 [PCM-0216587]
-5.5	Cc1oncc1C(=O)Nc1ccc(C(F)(F)F)cc1 [PCM-0065349]
47.9	O=C(CNc1ccc2ccccc2c1)N/N=C/c1cc(Br)c(O)c(Br)c1O [PCM-0215592]
-2.1	CCCCOc1c(C(=O)c2c(F)cc(C)cc2F)cnc2n[nH]cc12 [PCM-0095294]
7.7	NCCOc1ccc(Cl)cc1C(=O)Nc1ccc([N+](=O)[O-])cc1Cl [PCM-0215860]
73.8	CNC(=O)c1cc(Oc2ccc(NC(=O)Nc3ccc(Cl)c(C(F)(F)F)c3)cc2)ccn1 [PCM-0094958]
40.9	O=C(O[C@@H]1Cc2c(O)cc(O)cc2O[C@H]1c1cc(O)c(O)c(O)c1)c1cc(O)c(O)c(O)c1 [PCM-0216357]
-3.9	CC(C)COc1ccc(CNC(=O)N(Cc2ccc(F)cc2)C2CCN(C)CC2)cc1 [PCM-0215604]
-9.3	O=c1c(-c2ccc(O)cc2)coc2cc(O[C@@H]3O[C@H](CO)[C@@H](O)[C@H](O)[C@H]3O)cc(O)c12 [PCM-0214858]
-9.3	O=C(/C=C/c1ccc(CN(CCO)CCc2c[nH]c3ccccc23)cc1)NO [PCM-0095072]
-0.8	O=c1cc(-c2ccccc2)oc2c1ccc1ccccc12 [PCM-0216134]
9.3	O=C1CCc2ccc(O)cc2N1 [PCM-0215070]
13.9	O=C(O)c1ccccc1C(=O)Nc1ccc(-c2ccccc2)cc1 [PCM-0215383]
-5.5	CS(=O)(=O)N1CCc2c(-c3cnc(N)nc3)nc(N3CCOCC3)nc21 [PCM-0095409]
13.1	OCCOCCN1CCN(Cc2cccc(Oc3ccccc3)c2)CC1 [PCM-0215707]
68.7	CN(CC(=O)N(Cc1ccc(C2CCCCC2)cc1)c1ccc(C(=O)O)cc1)S(=O)(=O)c1c(F)c(F)c(F)c(F)c1F [PCM-0095763]
23.9	Nc1ncnc2c1c(I)cn2[C@@H]1O[C@H](CO)[C@@H](O)[C@H]1O [PCM-0215664]
13.1	O=C(O)c1cc(C(=O)O)c(C(=O)N(Cc2cccc(Oc3ccccc3)c2)[C@H]2CCCc3ccccc32)cc1C(=O)O [PCM-0215841]
3.9	c1cc(-c2cnn3cc(-c4ccc(N5CCNCC5)cc4)cnc23)c2cccnc2c1 [PCM-0095784]
-3.1	O=C(O)CCNc1cc(N2CCc3ccccc3CC2)nc(-c2ccccn2)n1 [PCM-0215478]

inhibition at 10 µM [%]	Molecule
8.6	CCN1CC(CCN2CCOCC2)C(c2ccccc2)(c2ccccc2)C1=O (stereo not shown) [PCM-0095590]
2.3	C#C[C@]1(OC(C)=O)CC[C@H]2[C@@H]3CCC4=C[C@@H](OC(C)=O)CC[C@@H]4[C@H]3CC[C@@]21C [PCM-0214663]
-4.6	CC(C)(C)C(O)/C=C/c1ccc2c(c1)OCO2 (stereo not shown) [PCM-0216138]
-11.7	COc1cc2ncnc(Oc3ccc(CC(=O)Nc4cnn(C(C)C)c4)cc3)c2cc1OC [PCM-0215465]
-5.1	Ac-PHSCN-NH2 [PCM-0215851]
46.2	O=C(c1ccc(/C=C/c2n[nH]c3ccccc23)cc1)N1CCNCC1 [PCM-0095209]
-7.7	COC(=O)C1=CO[C@@H](O[C@@H]2O[C@H](CO)[C@@H](O)[C@H](O)[C@H]2O)[C@@H]2C(CO)=C[C@H](O)[C@H]12 [PCM-0216324]
5.4	COc1ccc(C=O)c(O)c1 [PCM-0216133]
-28.6	O=C(O)CC(O)(CC(=O)OCc1ccc(O[C@@H]2O[C@H](CO)[C@@H](O)[C@H](O)[C@H]2O)cc1)C(=O)OCc1ccc(O[C@@H]2O[C@H](CO)[C@@H](O)[C@H](O)[C@H]2O)cc1 (stereo partly shown) [PCM-0216319]
-2.3	CC(=O)Oc1cc2c(s1)CCN(C(C(=O)C1CC1)c1ccccc1F)C2 (stereo not shown) [PCM-0095029]
57.1	COc1ccc(-c2nc(-c3cc(C(F)(F)F)cc(C(F)(F)F)c3)n(Cc3ccc(C(N)=O)cc3)c2-c2ccc(OC)cc2)cc1 [PCM-0215748]
33.5	COc1ccc(Cn2ccc3ccc(C(=O)NO)cc32)cc1 [PCM-0095291]
-17.9	C[C@H](NC(=O)C(=O)Nc1ccccc1C(C)(C)C)C(=O)N[C@@H](CC(=O)O)C(=O)COc1c(F)c(F)cc(F)c1F [PCM-0215672]
15.4	CC1(C)CCC[C@]2(C)[C@H]3CCO[C@]3(C)CC[C@@H]12 [PCM-0215965]
3.9	C[C@H](CCC(=O)O)[C@H]1CC[C@H]2[C@@H]3C[C@H](O)[C@@H]4C[C@H](O)CC[C@]4(C)[C@H]3CC[C@]12C [PCM-0214678]
-22.8	CCc1cncnc1N1CCN(Cc2nc3ccc(C(F)(F)F)cc3[nH]2)CC1 [PCM-0065022]
-0.8	CC(=O)N1CCC(Nc2cc(C(=O)NC[C@H](O)CN3CCc4ccccc4C3)ncn2)CC1 [PCM-0215901]
-6.2	Nc1[nH]c(=O)ncc1F [PCM-0086523]
9	COc1cc(C(C)=O)ccc1O [PCM-0094831]
-16.2	C/C(=C(/CCOC(=O)C(C)C)SS/C(CCOC(=O)C(C)C)=C(\C)N(C=O)Cc1cnc(C)nc1N)N(C=O)Cc1cnc(C)nc1N [PCM-0216636]
-2.1	COc1cc(OC)c(/C=C/S(=O)(=O)Cc2ccc(OC)c(NCC(=O)O)c2)c(OC)c1 [PCM-0094976]
22.4	Cc1nnsc1C(=O)Nc1ccc(-n2nc(C(F)(F)F)cc2C(F)(F)F)cc1 [PCM-0215731]
6.8	c1cc(CN2CCCNCCNCCCNCC2)ccc1CN1CCCNCCNCCCNCC1 [PCM-0095456]
28.3	Cc1ccc(-n2nc(C(C)(C)C)cc2NC(=O)NCc2cc(F)ccc2Oc2ccc3c(cnn3CCO)c2)cc1 [PCM-0215475]
80	O=C1NC(=O)C(c2cnc3ccccn23)=C1c1cn2c3c(cc(F)cc13)CN(C(=O)N1CCCCC1)CC2 [PCM-0215438]

inhibition at 10 µM [%]	Molecule
6.2	CC1Cc2ccccc2N1NC(=O)c1ccc(Cl)c(S(N)(=O)=O)c1 (stereo not shown) [PCM-0085884]
12.4	OC[C@H]1O[C@@H](c2ccc(Cl)c(Cc3ccc(O[C@H]4CCOC4)cc3)c2)[C@H](O)[C@@H](O)[C@@H]1O [PCM-0095610]
63.4	CNC(=O)c1ccccc1Nc1cc(Nc2ccc(N3CCOCC3)cc2OC)ncc1C(F)(F)F [PCM-0215412]
-14.8	C[C@@H](O)[C@H]1C(=O)N2C(C(=O)O)=C(S[C@@H]3CN[C@H](C(=O)N(C)C)C3)[C@H](C)[C@H]12 [PCM-0095036]
4.7	NCc1c[nH]c(=S)n1[C@@H]1CCc2c(F)cc(F)cc2C1 [PCM-0214808]
15.9	C=C1C(=O)O[C@@H]2C[C@@]3(C)CCCC(=C)[C@@H]3C[C@H]12 [PCM-0214959]
10.9	COc1cc(C)c(/C=C/C(C)=C/C=C/C(C)=C/C(=O)O)c(C)c1C [PCM-0086430]
89	COc1cc(N2CCC(N3CCN(C)CC3)CC2)ccc1Nc1ncnc(Nc2ccccc2S(=O)(=O)C(C)C)n1 [PCM-0215273]
6	Cc1nc2n(c(=O)c1CCN1CCC(c3noc4cc(F)ccc34)CC1)CCCC2O (stereo not shown) [PCM-0065046]
-1.6	CC1(C)S[C@@H]2[C@H](NC(=O)[C@H](N)c3ccccc3)C(=O)N2[C@H]1C(=O)O [PCM-0214636]
-7.8	CCCCC(C)(O)C/C=C/[C@H]1[C@H](O)CC(=O)[C@@H]1CCCCCCC(=O)OC (stereo partly shown) [PCM-0215257]
43.4	Oc1cc(CNC(=S)/C=C/c2cc(O)c(O)c(Br)c2)cc(O)c1O [PCM-0215728]
-14.5	CC(=O)Nc1ccccc1 [PCM-0090657]
-2.3	NCCc1ccc(O)c(O)c1 [PCM-0065130]
86.9	NC(=O)Nc1cc(-c2cccc(F)c2)sc1C(=O)N[C@H]1CCCNC1 [PCM-0095092]
8.5	O=C(O)c1cc(C(F)(F)F)ccc1N1CC[C@H](OCc2ccccn2)C1 [PCM-0215430]
2.6	CSC[C@H](N)C(=O)O [PCM-0215958]
5.4	Nc1nc(-c2ccco2)c2cnn(Cc3ccccc3F)c2n1 [PCM-0215878]
-18.6	Fc1ccc2[nH]ccc2c1-c1nc(N2CCOCC2)c2sc(CN3CCN(CC4CC4)CC3)cc2n1 [PCM-0215422]
3.4	CC(C)OC(=O)C1=CN(C(=O)c2ccc(F)c(F)c2)CC(C)(C)c2c1[nH]c1ccccc21 [PCM-0095387]
-19.5	COc1c2occc2cc2ccc(=O)oc12 [PCM-0087924]
40.9	CCOC(=O)C1=C(N)Oc2ccc(Cl)cc2C1C(C#N)C(=O)OCC (stereo not shown) [PCM-0215487]
97.3	CC(=O)Nc1nc(-c2cccc(NS(=O)(=O)c3cccc4c(N(C)C)cccc34)c2)cs1 [PCM-0215679]

Molecule	inhibition at 10 µM [%]
CCC(C)C(=O)O[C@@H]1[C@@H](OC(C)=O)[C@]2(C)[C@H](C(C)=O)CC[C@@]23O[C@]32CC[C@H]3C[C@@H](O[C@H]4C[C@@H](OC)[C@H](O[C@@H]5O[C@H](C)[C@@H](O)[C@@H](OC)[C@H]5O)[C@@H](C)O4)CC[C@]3(C)[C@@H]12 (stereo partly shown) [PCM-0216595]	-11.6
CO[C@H]1C[C@H](O[C@@H]2/C(C)=C/C[C@@H]3C[C@@H](C[C@]4(CC[C@H](C)[C@@H](C5CCCCC5)O4)O3)OC(=O)[C@@H]3C=C(C)/C(=N/O)[C@H]4OC/C(=C\C=C\[C@@H]2C)[C@]43O)O[C@@H](C)[C@@H]1O [PCM-0216231]	41.7
CC(C)(O)[C@@H]1CC[C@](C)([C@H]2[C@@H](O)C[C@@]3(C)[C@@H]4C[C@H](O)[C@H]5C(C)(C)[C@@H](O)CC[C@@]56C[C@@]46CC[C@]23C)O1 [PCM-0215101]	-6.9
